Results as given in PubChem BioAssay AID330 (DTP/NCI, 2004).
Values joined by “and” are separate entries in the source; they are usually repeats but may differ in a detail not shown here. Equal entries are not always repeated. Inconclusive results and toxic doses are left out.

Test system: P388 leukemia ip, CD2F1 mice, survival T/C
Assay: NCI In Vivo Anticancer Drug Screen. Data for tumor model P388 Leukemia (intraperitoneal) in CD2F1 (CDF1) mice
Conditions: endpoint: median survival time, higher = longer survival
In short: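 Mice carrying the transplanted tumor received test compound or vehicle. Survival was recorded in each group, and the value is the treated-group measurement divided by that of the vehicle-treated control group.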

[1] = dose: 3.13 mg/kg/injection, schedule: Q01DX009 (ip), vehicle: saline with Tween-80
[2] = dose: 6.25 mg/kg/injection, schedule: Q01DX009 (ip), vehicle: saline with Tween-80
[3] = dose: 12.5 mg/kg/injection, schedule: Q01DX009 (ip), vehicle: saline with Tween-80
[4] = dose: 25.0 mg/kg/injection, schedule: Q01DX009 (ip), vehicle: Klucel (hydroxypropylcellulose) (HPC)
[5] = dose: 50.0 mg/kg/injection, schedule: Q01DX009 (ip), vehicle: Klucel (hydroxypropylcellulose) (HPC)
[6] = dose: 60.0 mg/kg/injection, schedule: Q01DX005 (ip), vehicle: saline with Tween-80
[7] = dose: 120.0 mg/kg/injection, schedule: Q01DX005 (ip), vehicle: saline with Tween-80
[8] = dose: 240.0 mg/kg/injection, schedule: Q01DX005 (ip), vehicle: saline with Tween-80
[9] = dose: 50.0 mg/kg/injection, schedule: Q01DX005 (ip), vehicle: saline
[10] = dose: 100.0 mg/kg/injection, schedule: Q01DX005 (ip), vehicle: saline
[11] = dose: 200.0 mg/kg/injection, schedule: Q01DX005 (ip), vehicle: saline
[12] = dose: 50.0 mg/kg/injection, schedule: Q01DX005 (ip), vehicle: Klucel (hydroxypropylcellulose) (HPC)
[13] = dose: 100.0 mg/kg/injection, schedule: Q01DX005 (ip), vehicle: Klucel (hydroxypropylcellulose) (HPC)
[14] = dose: 200.0 mg/kg/injection, schedule: Q01DX005 (ip), vehicle: Klucel (hydroxypropylcellulose) (HPC)
[15] = dose: 50.0 mg/kg/injection, schedule: Q01DX005 (ip), vehicle: saline with Tween-80
[16] = dose: 100.0 mg/kg/injection, schedule: Q01DX005 (ip), vehicle: saline with Tween-80
[17] = dose: 200.0 mg/kg/injection, schedule: Q01DX005 (ip), vehicle: saline with Tween-80
[18] = dose: 12.5 mg/kg/injection, schedule: Q01DX009 (ip), vehicle: saline
[19] = dose: 25.0 mg/kg/injection, schedule: Q01DX009 (ip), vehicle: saline
[20] = dose: 50.0 mg/kg/injection, schedule: Q01DX009 (ip), vehicle: saline with Tween-80
[21] = dose: 100.0 mg/kg/injection, schedule: Q01DX009 (ip), vehicle: saline with Tween-80
[22] = dose: 200.0 mg/kg/injection, schedule: Q01DX009 (ip), vehicle: saline with Tween-80
[23] = dose: 100.0 mg/kg/injection, schedule: Q04DX002 (ip), vehicle: saline
[24] = dose: 200.0 mg/kg/injection, schedule: Q04DX002 (ip), vehicle: saline

SMILES: Cc1cc2c(cc1C)C(=O)c1c(O)c3c(c(O)c1C2=O)C[C@@](O)(C(=O)CO)C[C@@H]3OC1CC(N)C(O)C(C)O1 (stereo partly drawn)
- T/C (dose: 0.39 mg/kg/injection, schedule: Q04DX003 (ip), vehicle: water): 115 % of control
- T/C (dose: 0.78 mg/kg/injection, schedule: Q04DX003 (ip), vehicle: water): 115 % of control
- T/C (dose: 1.56 mg/kg/injection, schedule: Q04DX003 (ip), vehicle: water): 110 % of control
- T/C (dose: 3.13 mg/kg/injection, schedule: Q04DX003 (ip), vehicle: water): 151 % of control and 157 % of control
- T/C (dose: 6.25 mg/kg/injection, schedule: Q04DX003 (ip), vehicle: water): 190 % of control
- T/C (dose: 25.0 mg/kg/injection, schedule: Q04DX003 (ip), vehicle: water): 100 % of control

SMILES: O=C1NC(Cc2ccccc2)C(=O)NC1Cc1ccccc1 (stereo not drawn)
- T/C [1]: 86 % of control
- T/C [2]: 100 % of control
- T/C [3]: 107 % of control
- T/C [4]: 101 % of control
- T/C (dose: 25.0 mg/kg/injection, schedule: Q01DX009 (ip), vehicle: saline with Tween-80): 103 % of control
- T/C [5]: 104 % of control

SMILES: Cn1c([N+](=O)[O-])cnc1N1CCN(c2nncs2)C1=O
- T/C (dose: 60.0 mg/kg/injection, schedule: Q01DX005 (ip), vehicle: saline): 100 % of control
- T/C (dose: 120.0 mg/kg/injection, schedule: Q01DX005 (ip), vehicle: saline): 101 % of control
- T/C (dose: 240.0 mg/kg/injection, schedule: Q01DX005 (ip), vehicle: saline): 100 % of control

SMILES: CC12N=C1CCCCCCCCCCCC2=O (stereo not drawn)
- T/C [6]: 101 % of control
- T/C [7]: 100 % of control
- T/C [8]: 108 % of control

SMILES: CC(=O)NC1C(Nc2ccc(S(=O)(=O)Nc3cc(C)nc(C)n3)cc2)OC(CO)C(O)C1O (stereo not drawn)
- T/C [9]: 108 % of control
- T/C [10]: 98 % of control
- T/C [11]: 101 % of control

SMILES: CCc1cccc(C)c1NC(=O)C(=O)CC(=O)CS(=O)(=O)c1ccc(C)cc1
- T/C [6]: 109 % of control
- T/C [7]: 111 % of control
- T/C [8]: 104 % of control

SMILES: CCC(O)C(O)(c1ccccc1)c1nc2ccccc2s1 (stereo not drawn)
- T/C [12]: 102 % of control
- T/C [13]: 102 % of control
- T/C [14]: 99 % of control

SMILES: Cc1cc(NC(=O)c2ccc(NC(=O)c3ccc(N)cc3)cc2)ccc1N=Nc1ccc2c(O)c(N=Nc3ccc(S(=O)(=O)O)cc3C)c(S(=O)(=O)O)cc2c1
- T/C [15]: 104 % of control and 107 % of control and 108 % of control
- T/C [16]: 105 % of control and 112 % of control and 117 % of control
- T/C [17]: 107 % of control and 114 % of control
- T/C (dose: 400.0 mg/kg/injection, schedule: Q01DX005 (ip), vehicle: saline with Tween-80): 113 % of control and 119 % of control

SMILES: O=N[O-].[Co].[N-]=C=S.[NH2-].[NH2-].[NH2-].[NH2-]
- T/C (dose: 12.5 mg/kg/injection, schedule: Q04DX003 (ip), vehicle: saline with Tween-80): 110 % of control
- T/C (dose: 25.0 mg/kg/injection, schedule: Q04DX003 (ip), vehicle: saline with Tween-80): 120 % of control
- T/C (dose: 50.0 mg/kg/injection, schedule: Q04DX003 (ip), vehicle: saline with Tween-80): 120 % of control

SMILES: CCN(CC)CCCCCCCNc1cc(OC)cc2c(C)ccnc12
- T/C (dose: 6.25 mg/kg/injection, schedule: Q01DX009 (ip), vehicle: saline): 90 % of control
- T/C [18]: 93 % of control
- T/C [19]: 99 % of control

SMILES: C=CC(C=C)O[Si](C)(C)C(C)(C)C
- T/C (dose: 23.0 mg/kg/injection, schedule: Q01DX005 (ip), vehicle: saline): 101 % of control
- T/C (dose: 46.0 mg/kg/injection, schedule: Q01DX005 (ip), vehicle: saline): 105 % of control
- T/C (dose: 92.0 mg/kg/injection, schedule: Q01DX005 (ip), vehicle: saline): 105 % of control

SMILES: NC(=O)NN=C(C(F)(F)F)C(F)(F)F
- T/C [20]: 110 % of control
- T/C [21]: 101 % of control

SMILES: O=C(CC(c1cccnc1)C(C(=O)c1ccc(Cl)cc1)C(CC(=O)c1ccc(Cl)cc1)c1cccnc1)c1ccc(Cl)cc1 (stereo not drawn)
- T/C [15]: 90 % of control
- T/C [16]: 90 % of control
- T/C [17]: 92 % of control

SMILES: O=c1oc(-c2ccccc2)nc2c1CCCS2
- T/C [12]: 100 % of control
- T/C [13]: 99 % of control and 103 % of control
- T/C [14]: 103 % of control and 89 % of control

SMILES: CC(=O)OCC12C(=O)CC(C)C3(CC(c4ccoc4)OC3=O)C1CCC(=O)C2(O)CCl (stereo not drawn)
- T/C (dose: 0.75 mg/kg/injection, schedule: Q01DX005 (ip), vehicle: saline + alcohol): 96 % of control
- T/C (dose: 1.5 mg/kg/injection, schedule: Q01DX005 (ip), vehicle: saline + alcohol): 106 % of control
- T/C (dose: 3.0 mg/kg/injection, schedule: Q01DX005 (ip), vehicle: saline + alcohol): 103 % of control
- T/C (dose: 6.0 mg/kg/injection, schedule: Q01DX005 (ip), vehicle: saline + alcohol): 108 % of control
- T/C (dose: 12.0 mg/kg/injection, schedule: Q01DX005 (ip), vehicle: saline + alcohol): 106 % of control
- T/C (dose: 12.5 mg/kg/injection, schedule: Q01DX005 (ip), vehicle: saline + Tween-80 + alcohol): 90 % of control
- T/C (dose: 25.0 mg/kg/injection, schedule: Q01DX005 (ip), vehicle: saline + Tween-80 + alcohol): 90 % of control
- T/C (dose: 50.0 mg/kg/injection, schedule: Q01DX005 (ip), vehicle: saline + Tween-80 + alcohol): 93 % of control
- T/C (dose: 150.0 mg/kg/injection, schedule: Q01DX005 (ip), vehicle: saline + Tween-80 + alcohol): 100 % of control

SMILES: CC(=O)C(CO)C(=O)Nc1ccccc1 (stereo not drawn)
- T/C [20]: 100 % of control
- T/C [21]: 95 % of control
- T/C [22]: 95 % of control

SMILES: CC(=O)OC(C)C[N+](C)(C)C (stereo not drawn)
- T/C [23]: 102 % of control
- T/C [24]: 102 % of control
- T/C (dose: 400.0 mg/kg/injection, schedule: Q04DX002 (ip), vehicle: saline): 94 % of control

SMILES: Nc1ncnc2c1cnn2Cc1ccc(Cl)cc1
- T/C [20]: 100 % of control
- T/C [21]: 100 % of control

SMILES: O=C1NC(=O)C(=Cc2cc3c(cc2Br)OCO3)C(=O)N1
- T/C [4]: 101 % of control
- T/C [5]: 101 % of control
- T/C [20]: 114 % of control
- T/C (dose: 100.0 mg/kg/injection, schedule: Q01DX009 (ip), vehicle: Klucel (hydroxypropylcellulose) (HPC)): 117 % of control
- T/C [21]: 110 % of control and 124 % of control
- T/C (dose: 166.0 mg/kg/injection, schedule: Q01DX009 (ip), vehicle: saline with Tween-80): 117 % of control
- T/C (dose: 200.0 mg/kg/injection, schedule: Q01DX009 (ip), vehicle: Klucel (hydroxypropylcellulose) (HPC)): 113 % of control
- T/C [22]: 96 % of control

SMILES: Nc1cccc(CCCCc2ccccc2)c1
- T/C [23]: 103 % of control
- T/C [24]: 110 % of control

SMILES: CCOC(=O)NC(NC(=O)OCC)C(=O)Nc1cccc2c(OC(=O)C(NC(=O)OCC)NC(=O)OCC)c(N=Nc3ccc(S(=O)(=O)Nc4nccs4)cc3)cc(N=Nc3ccc(S(=O)(=O)Nc4nccs4)cc3)c12 (tested in a mixture with another compound)
- T/C [15]: 117 % of control
- T/C [16]: 112 % of control and 94 % of control

SMILES: CN1C(=O)c2c(ccc3c2OCO3)[C@@]2(C)C(=O)Cc3cc4c(cc3[C@H]12)OCO4
- T/C (dose: 6.25 mg/kg/injection, schedule: Q01DX005 (ip), vehicle: Klucel (hydroxypropylcellulose) (HPC)): 89 % of control
- T/C (dose: 12.5 mg/kg/injection, schedule: Q01DX005 (ip), vehicle: Klucel (hydroxypropylcellulose) (HPC)): 88 % of control

SMILES: O=C(O)C1CCCN1C(=O)OCc1ccccc1 (stereo not drawn)
- T/C [13]: 87 % of control
- T/C [14]: 89 % of control
- T/C (dose: 400.0 mg/kg/injection, schedule: Q01DX005 (ip), vehicle: Klucel (hydroxypropylcellulose) (HPC)): 91 % of control

SMILES: O=C(CNC(=O)c1ccc(Cl)cc1Cl)N/N=C/c1cccc([N+](=O)[O-])c1
- T/C [1]: 91 % of control
- T/C [2]: 92 % of control
- T/C [3]: 106 % of control

SMILES: COc1ncc(Br)cc1C(=O)NCCc1ccc(S(=O)(=O)NC(=O)NC2CCCCC2)cc1
- T/C [20]: 99 % of control
- T/C [21]: 92 % of control

SMILES: CC12CC(=O)CC1(C)CC(=O)C2 (stereo not drawn)
- T/C [18]: 92 % of control
- T/C [19]: 92 % of control
- T/C (dose: 50.0 mg/kg/injection, schedule: Q01DX009 (ip), vehicle: saline): 86 % of control and 97 % of control

SMILES: Nc1cnc(CO)nc1C(=O)O
- T/C [9]: 100 % of control
- T/C [10]: 102 % of control
- T/C [11]: 107 % of control
